Assay results reported in ChEMBL document CHEMBL4251633, “Design, synthesis, biological evaluation and cocrystal structures with tubulin of chiral β-lactam bridged combretastatin A-4 analogues as potent antitumor agents” (Eur J Med Chem, 2018).

Tests used:
MDA-MB-231 = test: Antiproliferative activity against human MDA-MB-231 cells after 48 hrs by MTT assay; assay type: functional, cell-based; settings: MDA-MB-231, 48 h
A2780 = test: cells; settings: Homo sapiens, A2780, 48 h
Description: Antiproliferative activity against human A2780 cells after 48 hrs by MTT assay

HeLa = test: Antiproliferative activity against human HeLa cells after 48 hrs by MTT assay; assay type: functional, cell-based
SK-OV-3 = test: Antiproliferative activity against human SKOV3 cells after 48 hrs by MTT assay; settings: SK-OV-3, 48 h

Row | SMILES | IC50 (MDA-MB-231) [nM] | IC50 (A2780) [nM] | IC50 (HeLa) [nM] | IC50 (SK-OV-3) [nM]
1 | COc1ccc([C@H]2[C@H](NC(=O)c3ccccc3)C(=O)N2c2cc(OC)c(OC)c(OC)c2)cc1O | 47 | 27 | 24 | 45
2 | C=C1C(=O)N(c2ccccc2)[C@H]1c1ccccc1 | > 20000 | > 20000 | > 20000 | > 20000
3 | C=C1C(=O)N(c2cc(OC)c(OC)c(OC)c2)[C@H]1c1ccc(OC)c(OC(C)C)c1 | 15900 | 11300 | > 20000 | 18000
4 | C=C1C(=O)N(c2cc(OC)c(OC)c(OC)c2)[C@H]1c1ccc(OC)c(OS(=O)(=O)c2ccc(C)cc2)c1 | 12800 | > 20000 | 17800 | 12100
5 | COc1ccc([C@H]2[C@@H](C)C(=O)N2c2cc(OC)c(OC)c(OC)c2)cc1N | 63 | 81 | 215 | 59
6 | COc1ccc([C@H]2[C@H](NC(C)=O)C(=O)N2c2cc(OC)c(OC)c(OC)c2)cc1O | 47 | 33 | 35 | 32
7 | COc1ccc([C@@H]2N(c3cc(OC)c(OC)c(OC)c3)C(=O)[C@]2(O)CO)cc1O | 2320 | 1540 | 2100 | 2070
8 | COc1ccc([C@H]2[C@@H](C)C(=O)N2c2cc(OC)c(OC)c(OC)c2)cc1O | 31 to 63 | 31 to 63 | 31 to 63 | 31 to 63
9 | C=C1C(=O)N(c2cccc(OC)c2)[C@H]1c1ccc(OC)c(O)c1 | 1370 | 677 | 2170 | 1390
10 | C=C1C(=O)N(c2cc(OC)c(OC)c(OC)c2)[C@H]1c1ccc(OC)cc1 | > 20000 | > 20000 | > 20000 | > 20000
11 | C=C1C(=O)N(c2cc(OC)c(OC)c(OC)c2)[C@H]1c1cccc(O)c1 | 6640 | 10500 | 15000 | 14500
12 | C=C1C(=O)N(c2cc(OC)c(OC)c(OC)c2)[C@H]1c1ccc(C)cc1 | 193 | 127 | 209 | 265
13 | C=C1C(=O)N(c2cc(OC)cc(OC)c2)[C@H]1c1ccc(OC)c(O)c1 | 125 | 112 | 295 | 175
14 | C=C1C(=O)N(c2cc(OC)c(OC)c(OC)c2)[C@H]1c1ccc(OC)c(OCC)c1 | 958 | 854 | 2030 | 1140
15 | C=C1C(=O)N(c2cc(OC)c(OC)c(OC)c2)[C@H]1c1ccc(OC)c(OCCC)c1 | 5620 | 3420 | 6890 | 5260
16 | C=C1C(=O)N(c2cc(OC)c(OC)c(OC)c2)[C@H]1c1ccc(OC)c(OCc2ccccc2)c1 | > 20000 | > 20000 | > 20000 | > 20000
17 | COc1ccc([C@@H]2[C@@H](C)C(=O)N2c2cc(OC)c(OC)c(OC)c2)cc1O | 1080 | 771 | 807 | 650
18 | COc1ccc([C@H]2[C@H](NS(C)(=O)=O)C(=O)N2c2cc(OC)c(OC)c(OC)c2)cc1O | 254 | 164 | 192 | 231
19 | COc1ccc([C@H]2[C@H](C)C(=O)N2c2cc(OC)c(OC)c(OC)c2)cc1N | 17 | 21 | 35 | 8
20 | COc1ccc([C@H]2[C@@H](OC)C(=O)N2c2cc(OC)c(OC)c(OC)c2)cc1O | 1960 | 1220 | 1790 | 2210

Row | SMILES | IC50 (MDA-MB-231) [nM] | IC50 (A2780) [nM] | IC50 (HeLa) [nM] | IC50 (SK-OV-3) [nM]
21 | C=C1C(=O)N(c2cc(OC)c(OC)c(OC)c2)[C@H]1c1ccc(OC)c(OC(C)=O)c1 | 133 | 81 | 116 | 104
22 | C=C1C(=O)N(c2ccc(OC)cc2)[C@H]1c1ccc(OC)c(O)c1 | > 20000 | > 20000 | > 20000 | > 20000
23 | C=C1C(=O)N(c2cc(OC)c(OC)c(OC)c2)[C@H]1c1ccc(OC)c(O[Si](C)(C)C(C)(C)C)c1 | 560 | 287 | 657 | 414
24 | COc1ccc([C@H]2[C@H](CO)C(=O)N2c2cc(OC)c(OC)c(OC)c2)cc1N | 27 | 35 | 44 | 8
25 | COC[C@@]1(OC)C(=O)N(c2cc(OC)c(OC)c(OC)c2)[C@H]1c1ccc(OC)c(O)c1 | > 20000 | 17700 | > 20000 | > 20000
26 | COc1ccc([C@H]2[C@H](Br)C(=O)N2c2cc(OC)c(OC)c(OC)c2)cc1O | 10 | 8 | 13 | 9
27 | COc1ccc([C@@H]2CC(=O)N2c2cc(OC)c(OC)c(OC)c2)cc1O | 28 | 22 | 30 | 24
28 | COc1ccc([C@@H]2[C@H](C)C(=O)N2c2cc(OC)c(OC)c(OC)c2)cc1O | 5140 | 5750 | 3920 | 3270
29 | C=C1C(=O)N(c2cc(OC)c(OC)c(OC)c2)[C@H]1c1ccccc1 | > 20000 | > 20000 | > 20000 | > 20000
30 | COc1ccc([C@H]2/C(=C/c3ccccc3)C(=O)N2c2cc(OC)c(OC)c(OC)c2)cc1O | 3160 | 2540 | 4730 | 2990
31 | C=C1C(=O)N(c2cc(OC)c(OC)c(OC)c2)[C@H]1c1ccc(OC)c(N)c1 | 40 | 31 | 32 | 36
32 | C=C1C(=O)N(c2cc(OC)c(OC)c(OC)c2)[C@H]1c1ccc(OC)c(F)c1 | 112 | 121 | 131 | 136
33 | C=C1C(=O)N(c2cc(OC)c(OC)c(OC)c2)[C@H]1c1ccc(OC)c(OC)c1 | 1020 | 854 | 3160 | 2260
34 | C=C1C(=O)N(c2cc(OC)c(OC)c(OC)c2)[C@H]1c1ccc(OC)c(Cl)c1 | 512 | 316 | 371 | 341
35 | COc1ccc([C@H]2[C@H](n3cc(CO)nn3)C(=O)N2c2cc(OC)c(OC)c(OC)c2)cc1O | 28 | 15 | 33 | 83
36 | C=CC(=O)Nc1cc([C@H]2C(=C)C(=O)N2c2cc(OC)c(OC)c(OC)c2)ccc1OC | 34 | 65 | 125 | 63
37 | COc1ccc([C@H]2/C(=C/c3ccc(C(C)(C)C)cc3)C(=O)N2c2cc(OC)c(OC)c(OC)c2)cc1O | > 20000 | > 20000 | > 20000 | > 20000
38 | C=C1C(=O)N(c2cc(OC)c(OC)c(OC)c2)[C@H]1c1cc(OC)c(OC)c(OC)c1 | 784 | 215 | 547 | 365
39 | COc1ccc([C@H]2[C@@H](CO)C(=O)N2c2cc(OC)c(OC)c(OC)c2)cc1N | 107 | 327 | 328 | 54
40 | COc1ccc([C@H]2[C@@H](OC(=O)CCC(=O)O)C(=O)N2c2cc(OC)c(OC)c(OC)c2)cc1O | 102 | 79 | 178 | 210
